# Measured values: patent publication US9173394B2, “Active agent combinations having insecticidal and acaricidal properties” (BAYER INTELLECTUAL PROPERTY GMBH, priority 2007, dated 2015)
# Like-named read-outs stand apart in the source and are kept apart here.
# Key:
# Myzus persicae = Myzus persicae test (Example A): spray treatment of infested cabbage leaves; format: in vivo
# Source text: (§1) Solvent: 78 parts by weight of acetone
# Tetranychus urticae = Tetranychus urticae test (OP-resistant/spray treatment) (Example D): infested bean leaf discs; format: in vivo
# Method: as §1
# Bean leaf discs (Phaseolus vulgaris) which are infested with all stages of the red spider mite (Tetranychus urticae) are sprayed with an active substance preparation of the desired concentration.
# After the desired period of time, the effect is determined in %.
# Phaedon cochleariae = Phaedon cochleariae larvae test (Example B): sprayed cabbage leaves populated with mustard beetle larvae; conditions: for pest or weed control at 100 g/ha / pest or weed control at 4 g/ha / pest or weed control at 20 g/ha / pest or weed control at 0.8 g/ha / pest or weed control at 0.16 g/ha: Phaedon cochleariae, in Brassica oleracea, 144 h
# Spodoptera frugiperda = Spodoptera frugiperda larvae test (Example C): sprayed cabbage leaves populated with army worm larvae; format: in vivo; conditions: for Destruction in % after 6 d: Table C second series
# Source text: as §1
# [1] = Myzus persicae, 24 h, read-out: Destruction in % after 1 d
# [2] = read-out: Destruction in % after 6 d, 100 g/ha, after 6 d, Table B fourth series
# [3] = Myzus persicae, 144 h, read-out: Destruction in % after 6 d
# [4] = single active substance, 0.16 g/ha, after 1 d
# [5] = read-out: Destruction in % after 6 d, 100 g/ha, after 6 d, Table B second series (r19-r78)
# [6] = read-out: Destruction in % after 6 d, 4 g/ha, after 6 d, Table B second series
# [7] = read-out: Destruction in % after 6 d
# [8] = read-out: Destruction in % after 6 d, 0.8 g/ha, after 6 d, Table B second series
# [9] = Myzus persicae, 144 h, single active substance, 0.8 g/ha, after 6 d, read-out: Destruction in % after 6 d
# [10] = 20 g/ha, after 6 d, Table B second series
compound,measurement,setting,value
"Cc1nn(C)c(/C(OC(=O)C(C)(C)C)=C(\C#N)c2ccc(C(C)(C)C)cc2)c1C [Cyenopyrafen, (1E)-2-cyano-2-[4-(1,1-dimethylethyl)phenyl]-1-(1,3,4-trimethyl-1H-pyrazol-5-yl)ethenyl 2,2-dimethylpropanoate]",pest or weed control at 4 g/ha,Myzus persicae; [1],0%
same,Destruction in % after 2 d,Tetranychus urticae; 0.16 g/ha,0%
same,Destruction in % after 2 d,Tetranychus urticae; 0.8 g/ha,50%
same,pest or weed control at 100 g/ha,Phaedon cochleariae; [2],0%
"N#Cc1nn(-c2c(Cl)cc(C(F)(F)F)cc2Cl)c(N)c1[S+]([O-])C(F)(F)F (stereo not shown) [Fipronil, fipronil]",pest or weed control at 20 g/ha,Myzus persicae; [1],30%
same,pest or weed control at 0.8 g/ha,Myzus persicae; [3],0%
same,Destruction in % after 6 d,Spodoptera frugiperda; 0.8 g/ha,17%
"Cc1ccc(/N=C/N(C)/C=N/c2ccc(C)cc2C)c(C)c1 [Amitraz, amitraz]",pest or weed control at 4 g/ha,Myzus persicae; [1],0%
same,pest or weed control at 100 g/ha,Phaedon cochleariae; [2],0%
CC(C)(C)c1ccc(CSc2cnn(C(C)(C)C)c(=O)c2Cl)cc1 [pyridaben],Destruction in % after 2 d,Tetranychus urticae; 20 g/ha,50%
same,pest or weed control at 100 g/ha,Phaedon cochleariae; [2],0%
emamectin-benzoate,Destruction in % after 1 d,Myzus persicae; [4],0%
same,Destruction in % after 2 d,"Spodoptera frugiperda; 0.8 g/ha, Table C first series",50%
same,Destruction in % after 2 d,"Phaedon cochleariae; 0.032 g/ha, Table B first series",0%
"N#CCNC(=O)c1cnccc1C(F)(F)F [Flonicamid, flonicamid]",pest or weed control at 0.8 g/ha,Myzus persicae; [1],0%
same,pest or weed control at 100 g/ha,Phaedon cochleariae; [5],0%
"Cc1nn(C)c(Oc2ccccc2)c1C=NOCc1ccc(C(=O)OC(C)(C)C)cc1 [Fenpyroximate, fenpyroximate]",pest or weed control at 4 g/ha,Myzus persicae; [1],0%
same,Destruction in % after 6 d,Tetranychus urticae; 4 g/ha,0%
"CNC(=O)c1cc(Cl)cc(C)c1NC(=O)c1cc(Br)nn1-c1ncccc1Cl [Rynaxapyr, 3-bromo-N-{4-chloro-2-methyl-6-[(methylamino)carbonyl]phenyl}-1-(3-chloropyridin-2-yl)-1H-pyrazole-5-carboxamide]",pest or weed control at 0.8 g/ha,Myzus persicae; [1],0%
same,pest or weed control at 0.032 g/ha,Myzus persicae; [3],0%
same,Destruction in % after 6 d,Spodoptera frugiperda; 0.16 g/ha,33%
same,pest or weed control at 4 g/ha,Phaedon cochleariae; [6],50%
CCc1nn(C)c(C(=O)NCc2ccc(C(C)(C)C)cc2)c1Cl [tebufenpyrad],Destruction in % after 2 d,Tetranychus urticae; 4 g/ha,10%
same,Destruction in % after 2 d,"Phaedon cochleariae; 100 g/ha, Table B third series",50%
"CC(C)c1cc(Oc2ccccc2)cc(C(C)C)c1NC(=S)NC(C)(C)C [Diafenthiuron, diafenthiuron]",pest or weed control at 4 g/ha,Myzus persicae; [1],0%
same,Destruction in % after 2 d,Tetranychus urticae; 100 g/ha,0%
same,Destruction in % after 6 d,Tetranychus urticae; 100 g/ha,0%
"CSC(=O)O/C(=C(/C#N)c1ccc(Cl)cc1)c1ccccc1C(F)(F)F [IKA 2002, O-{(E)-2-(4-chlorophenyl)-2-cyano-1-[2-(trifluoromethyl)phenyl]ethenyl}S-methyl thiocarbonate]",pest or weed control at 20 g/ha,Phaedon cochleariae; [7],0%
same,pest or weed control at 100 g/ha,Phaedon cochleariae; [7],0%
"COCCOC(=O)C(C#N)(C(=O)c1ccccc1C(F)(F)F)c1ccc(C(C)(C)C)cc1 (stereo not drawn) [Cyflumetofen, 2-methoxyethyl alpha-cyano-alpha-[4-(1,1,dimethylethyl)phenyl]-beta-oxo-2-(trifluoromethyl)benzenepropanoate]",pest or weed control at 4 g/ha,Myzus persicae; [1],0%
same,Destruction in % after 6 d,Tetranychus urticae; 4 g/ha,70%
same,pest or weed control at 100 g/ha,Phaedon cochleariae; [2],0%
"COC(=O)N(C(=O)N1COC2(C(=O)OC)Cc3cc(Cl)ccc3C2=N1)c1ccc(OC(F)(F)F)cc1 (stereo not shown) [Indoxacarb, indoxacarb]",pest or weed control at 20 g/ha,Myzus persicae; [1],0%
same,Destruction in % after 6 d,Spodoptera frugiperda; 0.8 g/ha,33%
same,Destruction in % after 6 d,Spodoptera frugiperda; 4 g/ha,83%
same,pest or weed control at 0.8 g/ha,Phaedon cochleariae; [8],0%
same,pest or weed control at 4 g/ha,Phaedon cochleariae; [6],33%
"O=C1C=C(N(Cc2ccc(Cl)nc2)CC(F)F)CO1 [Compound (I-5), 4-{[(6-chloropyrid-3-yl)methyl](2,2-difluoroethyl)amino}furan-2(5H)-one]",pest or weed control at 0.8 g/ha,Myzus persicae; [1],10%
same,pest or weed control at 4 g/ha,Myzus persicae; [1],70%
same,pest or weed control at 0.8 g/ha,Myzus persicae; [3],10%
same,Destruction in % after 6 d,Spodoptera frugiperda; 0.16 g/ha,0%
same,Destruction in % after 6 d,Spodoptera frugiperda; 0.8 g/ha,0%
same,Destruction in % after 2 d,"Spodoptera frugiperda; 4 g/ha, Table C third series",0%
same,Destruction in % after 2 d,"Spodoptera frugiperda; 20 g/ha, Table C third series",0%
same,Destruction in % after 6 d,Spodoptera frugiperda; 20 g/ha,0%
same,Destruction in % after 2 d,Tetranychus urticae; 0.16 g/ha,0%
same,Destruction in % after 2 d,Tetranychus urticae; 4 g/ha,0%
same,Destruction in % after 6 d,Tetranychus urticae; 4 g/ha,0%
same,Destruction in % after 2 d,"Phaedon cochleariae; 0.8 g/ha, Table B first series",0%
same,Destruction in % after 6 d,"Phaedon cochleariae; 20 g/ha, after 6 d, Table B fourth series",0%
same,Destruction in % after 2 d,"Phaedon cochleariae; 100 g/ha, Table B third series",50%
same,pest or weed control at 0.16 g/ha,"Phaedon cochleariae; read-out: Destruction in % after 6 d, 0.16 g/ha, after 6 d, Table B second series",0%
same,pest or weed control at 0.8 g/ha,Phaedon cochleariae; [8],0%
same,pest or weed control at 100 g/ha,Phaedon cochleariae; [2],33%
same,pest or weed control at 100 g/ha,Phaedon cochleariae; [5],0%
"Nc1nc(N)nc(NC2CC2)n1 [Cyromazine, cyromazine]",pest or weed control at 4 g/ha,Myzus persicae; [1],0%
same,pest or weed control at 20 g/ha,"Phaedon cochleariae; read-out: Destruction in % after 6 d, 20 g/ha, after 6 d, Table B fourth series (r118-r181)",0%
same,pest or weed control at 100 g/ha,Phaedon cochleariae; [2],0%
spinosad,Destruction in % after 6 d,"Myzus persicae; single active substance, 0.8 g/ha, after 6 d",0%
same,Destruction in % after 2 d,"Spodoptera frugiperda; 0.8 g/ha, Table C third series",0%
same,Destruction in % after 2 d,Tetranychus urticae; 4 g/ha,20%
same,Destruction in % after 6 d,"Phaedon cochleariae; 0.8 g/ha, after 6 d, Table B fourth series",50%
"O=C1C=C(N(CCF)Cc2ccc(Cl)nc2)CO1 [Compound (I-4), 4-{[(6-chloropyrid-3-yl)methyl](2-fluoroethyl)amino}furan-2(5H)-one]",pest or weed control at 0.8 g/ha,"Myzus persicae; Myzus persicae, 24 h, single active substance, 0.8 g/ha, after 1 d, read-out: Destruction in % after 1 d",0%
same,pest or weed control at 4 g/ha,"Myzus persicae; Myzus persicae, 24 h, single active substance, 4 g/ha, after 1 d, read-out: Destruction in % after 1 d",30%
same,pest or weed control at 0.8 g/ha,Myzus persicae; [9],0%
same,pest or weed control at 4 g/ha,"Myzus persicae; Myzus persicae, 144 h, single active substance, 4 g/ha, after 6 d, read-out: Destruction in % after 6 d",60%
same,Destruction in % after 6 d,Spodoptera frugiperda; 0.16 g/ha,0%
same,Destruction in % after 6 d,Spodoptera frugiperda; 0.8 g/ha,0%
same,Destruction in % after 2 d,"Spodoptera frugiperda; 4 g/ha, Table C third series",0%
same,Destruction in % after 2 d,"Spodoptera frugiperda; 20 g/ha, Table C third series",0%
same,Destruction in % after 6 d,Spodoptera frugiperda; 100 g/ha,0%
same,Destruction in % after 2 d,Tetranychus urticae; 0.8 g/ha,0%
same,Destruction in % after 2 d,Tetranychus urticae; 4 g/ha,0%
same,Destruction in % after 6 d,Tetranychus urticae; 4 g/ha,0%
same,Destruction in % after 2 d,Tetranychus urticae; 20 g/ha,0%
same,Destruction in % after 6 d,Phaedon cochleariae; [10],0%
same,Destruction in % after 2 d,"Phaedon cochleariae; 100 g/ha, Table B third series",33%
same,pest or weed control at 0.8 g/ha,Phaedon cochleariae; [7],0%
same,pest or weed control at 20 g/ha,Phaedon cochleariae; [7],0%
same,pest or weed control at 100 g/ha,Phaedon cochleariae; [7],33%
"CC1=NNC(=O)N(/N=C/c2cccnc2)C1 [Pymetrozine, pymetrozine]",pest or weed control at 0.16 g/ha,Myzus persicae; [1],0%
same,pest or weed control at 0.8 g/ha,Myzus persicae; [3],50%
same,pest or weed control at 100 g/ha,Phaedon cochleariae; [2],0%
"CC[S+]([O-])c1c(C#N)nn(-c2c(Cl)cc(C(F)(F)F)cc2Cl)c1N (stereo not shown) [Ethiprole, ethiprole]",pest or weed control at 4 g/ha,Myzus persicae; [1],0%
same,pest or weed control at 4 g/ha,Myzus persicae; [3],0%
same,pest or weed control at 0.8 g/ha,Phaedon cochleariae; [8],33%
same,pest or weed control at 4 g/ha,Phaedon cochleariae; [6],67%
milbemectin,Destruction in % after 1 d,Myzus persicae; [4],0%
same,Destruction in % after 6 d,Tetranychus urticae; 0.16 g/ha,0%
"CN(Cc1cnc(Cl)c(F)c1)C1=CC(=O)OC1 [Compound (I-6), 4-{[(6-chloro-5-fluoropyrid-3-yl)methyl](methyl)amino}furan-2(5H)-one]",pest or weed control at 0.16 g/ha,"Myzus persicae; Myzus persicae, 24 h, single active substance, 0.16 g/ha, after 1 d, read-out: Destruction in % after 1 d",0%
same,pest or weed control at 0.16 g/ha,"Myzus persicae; Myzus persicae, 144 h, single active substance, 0.16 g/ha, after 6 d, read-out: Destruction in % after 6 d",0%
same,pest or weed control at 0.8 g/ha,Myzus persicae; [9],70%
same,Destruction in % after 6 d,Spodoptera frugiperda; 0.8 g/ha,0%
same,Destruction in % after 2 d,"Spodoptera frugiperda; 4 g/ha, Table C third series",0%
same,Destruction in % after 2 d,"Spodoptera frugiperda; 20 g/ha, Table C first series",0%
same,Destruction in % after 2 d,"Spodoptera frugiperda; 20 g/ha, Table C third series",0%
same,Destruction in % after 6 d,Spodoptera frugiperda; 20 g/ha,0%
same,Destruction in % after 2 d,Tetranychus urticae; 0.16 g/ha,0%
same,Destruction in % after 6 d,Tetranychus urticae; 4 g/ha,0%
same,Destruction in % after 2 d,Tetranychus urticae; 20 g/ha,0%
same,Destruction in % after 6 d,Tetranychus urticae; 100 g/ha,50%
same,Destruction in % after 2 d,"Phaedon cochleariae; 0.8 g/ha, Table B first series",0%
same,Destruction in % after 6 d,Phaedon cochleariae; [10],0%
same,Destruction in % after 2 d,"Phaedon cochleariae; 100 g/ha, Table B third series",33%
same,pest or weed control at 0.16 g/ha,Phaedon cochleariae; [7],0%
same,pest or weed control at 0.8 g/ha,Phaedon cochleariae; [7],0%
same,pest or weed control at 4 g/ha,Phaedon cochleariae; [7],0%
same,pest or weed control at 20 g/ha,Phaedon cochleariae; [7],0%
"CCOCn1c(-c2ccc(Cl)cc2)c(C#N)c(Br)c1C(F)(F)F [Chlorfenapyr, chlorfenapyr]",pest or weed control at 4 g/ha,Myzus persicae; [1],0%
same,Destruction in % after 2 d,"Spodoptera frugiperda; 20 g/ha, Table C third series",33%
same,Destruction in % after 2 d,"Phaedon cochleariae; 100 g/ha, Table B third series",67%
"N#Cc1ccc(CC(=NNC(=O)Nc2ccc(OC(F)(F)F)cc2)c2cccc(C(F)(F)F)c2)cc1 (mixture of isomers) [Metaflumizone, 2-[2-(4-cyanophenyl)-1-[3-(trifluoromethyl)-phenyl]ethylidene]-N-[4-(trifluoromethoxy)phenyl]hydrazinecarboxamide]",pest or weed control at 0.8 g/ha,Myzus persicae; [9],0%
same,Destruction in % after 6 d,Spodoptera frugiperda; 20 g/ha,0%
same,Destruction in % after 6 d,Spodoptera frugiperda; 100 g/ha,83%
same,pest or weed control at 100 g/ha,Phaedon cochleariae; [7],0%
abamectin,Destruction in % after 1 d,Myzus persicae; [4],0%
same,Destruction in % after 2 d,Tetranychus urticae; 0.0064 g/ha,50%
same,Destruction in % after 2 d,"Phaedon cochleariae; 4 g/ha, Table B third series",67%
